Data from patent US6878736B1, “Histamine H3 receptor ligands” (James Black Foundation Limited, priority 1998, dated 2005).
Where a name gives a salt, the structure may show the parent alone.

Assays:
Histamine H3 receptor [1] = target: T1, Histamine H3 receptor (Cavia porcellus, UniProt Q9JI35); assay: Histamine H3 radioligand binding assay, guinea pig cortex ([3H]-R-α-methylhistamine); settings: guinea pig cortex membranes, competition with 1 nM [3H]-R-α-methylhistamine; for Ki: read-out: pKi (Guinea pig cortex) (converted)
Procedure: The compounds of the invention were also tested in a guinea pig cortex binding assay, as follows:
Histamine H3 Radioligand Binding Assay—Guinea Pig Cortex
Male Dunkin Hartley guinea pigs (200-300 g) were used. The whole brain was removed and immediately placed in ice-cold 20 mM Hepes-NaOH buffer (pH7.4 at 21±3° C.). The cortex was dissected, weighed and homogenised in ice-cold 20 mM Hepes-NaOH buffer (pH7.4 at 21±3° C.) (50 ml/guinea-pig cortex) using a polytron (Kinematica AG; PT-DA 3020/2TS, 3×3 s). The homogenate was centrifuged at 100×g for 5 min and the supernatants pooled and stored at 4° C. The pellets were rehomogenised in fresh ice-cold buffer (80 ml) and recentrifuged (100×g for 5 min). The supernatants were pooled and pellets rehomogenised and recentrifuged (100×g for 5 min). All supernatants were pooled and centrifuged at 39,800×g for 12 min at 4° C. The final pellet was resuspended in 20 mM Hepes-NaOH buffer (pH7.4 at 21±3° C.) to a tissue concentration of 7.5 mg.ml^−1, using a teflon-in-glass homogeniser.
Guinea pig cortex membranes (400 μl) were incubated for 165 min at 21±3° C. in a final volume of 500 μl with 20 mM Hepes-NaOH buffer containing [^3H]-R-α-methylhistamine (50 μl; 1 nM) and competing compound. Total and non-specific binding of [^3H]-R-α-methylhistamine were defined using 50 μl of buffer and 50 μl of 10 μM thioperamide, respectively. The assay was terminated by rapid filtration through Whatman GF/B filters, presoaked (2 hr) in 0.1% polyethyleneimine, using a Brandell Cell Harvester. The filters were washed (3×3 ml) with ice-cold 50 mM Tris-HCl (pH6.9 at 21±3° C.), transferred into scintillation vials, 5 ml liquid scintillation cocktail was added and after 4 hours the bound radioactivity was determined by counting (4 min) in a Beckman liquid scintillation counter.
Data are analysed using GraphPad prism and the general equation for a competition curve with variable Hill slope (nH). [formula] where • X is the log concentration of competing compound, • Y is the binding obtained at each concentration of X, • pIC50 is the concentration of the competitor required to compete for half of the specific binding.
The IC50 is converted to the K1 using the Cheng Prusoff equation, K1=IC50/(1+(L/KD)) where • IC50 is the concentration of competitor required to compete for half the specific binding, • L is the radioligand concentration used, • KD is the equilibrium dissociation constant for the radioligand determined by saturation experiments.

Histamine H3 receptor [2] = target: T1, Histamine H3 receptor; assay: Histamine H3 functional assay, guinea pig ileum (ileal longitudinal muscle, myenteric plexus); design: species or system tissue; settings: antagonist affinity from rightward shift of R-(α)-methylhistamine E/[A] curves (Schild), typical variance ±0.15 log units; for Kb: read-out: pKb (Guinea pig ileum) (converted)
Procedure: • 1. J. Med. Chem 1994, 314. • 2. WO 97/29092 Histamine H3 Functional Assay—Guinea Pig Ileum
The biological activity of the compounds of the examples was measured using the ileal longitudinal muscle, myenteric plexus assay described by Paton and Aboo Zar (J. Physiol. 1968, 194, 13-33). Male Dunkin-Hartley guinea pigs (250-300 g) were employed. Briefly, a 50 cm portion of ileum proximal to the caecum was removed, after discarding the terminal 20 cm. Ileal segments (3 cm) were cleaned by passing Krebs-Henseleit buffer containing 3 μM mepyramine gently through the ileum using a Pasteur pipette (size: 13.8 cm length, 0.65 cm diameter). To avoid unnecessary damage to the tissue, Krebs-Henseleit buffer was passed through the ileal segment, while it was lying horizontally on a petri dish. Therefore, the ileum was not over-distended and the buffer flowed through with ease. Each segment was then passed over a Pasteur pipette and the longitudinal muscle layer and adhering myenteric plexus was teased away using moist cotton wool, by stroking tangentially away from the mesenteric attachment. The tissues were suspended in 20 ml organ baths containing Krebs-Henseleit buffer at 37±1° C. and gassed with […]. The tissues were ligated to two parallel stainless steel wires, situated between two platinum electrodes (0.76 cm length, 0.06 cm diameter). All measurements were recorded isometrically (Grass FTO3 transducer). Following an initial loading tension of 1 g, the tissues were stimulated with electrical pulses at a frequency of 0.1 Hz and a pulse duration of 0.5 msec, as described by Kosterlitz & Watt (Br. J. Pharmacol. 1968, 266276). Initially, the tissues were stimulated at supramaximal (1.3 fold times maximal) voltage for a period of 30 min and then the tissues were washed and re-stimulated. A “sighter dose” of the selective histamine H3-receptor agonist, R-(α)-methylhistamine (0.3 μM) (Arrang et al. Nature, 1987, 117-123), was administered. Upon generation of response, the “sighter dose” was removed from the tissues by “washout” (6 washes over 60 min) and during this period the electrical stimulation was switched off. The tissues were then re-stimulated and allowed to stabilise prior to the addition of drug treatments, which were allocated on a randomised block basis to the organ baths. Following the incubation period, a single cumulative E/[A] curve was obtained. The experimental E/[A] curve data was expressed as the percentage inhibition of the peak height of electrically-stimulated contraction. Antagonist affinity values were calculated from the degree of rightward shift of the R-(α)-methylhistamine E/[A] curves using Schild's methods (Arunlakshana & Schild Br. J. Pharmacol. 1959, 48-58). Typical variance in this assay is ±0.15 log units.

T1 sequence (Q9JI35 whole entry): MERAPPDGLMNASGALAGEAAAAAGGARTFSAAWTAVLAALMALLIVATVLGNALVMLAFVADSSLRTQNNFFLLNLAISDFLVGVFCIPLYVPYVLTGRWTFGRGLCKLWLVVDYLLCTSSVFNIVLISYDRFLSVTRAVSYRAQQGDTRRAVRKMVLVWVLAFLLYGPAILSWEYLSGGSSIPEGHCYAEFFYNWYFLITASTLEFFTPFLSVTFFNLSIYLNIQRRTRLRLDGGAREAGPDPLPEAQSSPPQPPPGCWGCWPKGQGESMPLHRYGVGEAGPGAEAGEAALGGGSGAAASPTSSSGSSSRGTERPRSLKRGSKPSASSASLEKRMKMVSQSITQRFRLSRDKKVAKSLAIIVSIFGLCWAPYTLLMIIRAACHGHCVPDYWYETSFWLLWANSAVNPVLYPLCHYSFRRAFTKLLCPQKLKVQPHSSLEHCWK

| Compound | Ki (Histamine H3 receptor [1]) | Kb (Histamine H3 receptor [2]) | pKi (Guinea pig cortex) (Histamine H3 receptor [1]) | pKb (Guinea pig ileum) (Histamine H3 receptor [2]) | pKi (Guinea pig cortex) (Histamine H3 receptor [1]; bis-hydrochloride) |
| --- | --- | --- | --- | --- | --- |
| N=C(NCCN1CCCC1)NCc1ccc(Cl)cc1 [Example 16, N-(4-Chlorobenzyl)-N′-(2-pyrrolidin-1-yl-ethyl)-guanidine bis-hydrochloride] | 631 nM | 3980 nM |  |  |  |
| N=C(NCCCCN1CCCC1)NCc1ccc(Cl)cc1 [Example 17] | 5.01 nM | 50.1 nM |  |  |  |
| N=C(NCCCCCN1CCCC1)NCc1ccc(Cl)cc1 [Example 18, N-(4-Chlorobenzyl)-N′-(5-pyrrolidin-1-yl-pentyl)-guanidine bis-hydrochloride] | 5.01 nM | 50.1 nM |  |  |  |
| N=C(NCCCN1CCCC1)Nc1ccc(Cl)cc1 [Example 19, N-(4-Chlorophenyl)-N′-(3-pyrrolidin-1-yl-propyl)-guanidine] | 50.1 nM | 1000 nM |  |  |  |
| N=C(NCCCN1CCCC1)NCCc1ccc(Cl)cc1 [Example 20, N-(2(4-Chlorophenyl)ethyl)-N′-(3-pyrrolidin-1-yl-propyl)-guanidine bis-hydrochloride] | 1 nM | 200 nM |  |  |  |
| N=C(NCCCc1ccc(Cl)cc1)NCCCN1CCCC1 [Example 21, N-(3-(4-Chlorophenyl)propyl)-N′-(3-pyrrolidin-1-yl-propyl)-guanidine bis-hydrochloride] | 50.1 nM | 158 nM |  |  |  |
| N=C(NCCCCc1ccccc1)NCCCN1CCCC1 [Example 22, N-(4-Phenylbutyl)-N′-(3-pyrrolidin-1-yl-propyl)-guanidine bis-hydrochloride] | 79.4 nM | 200 nM |  |  |  |
| N=C(NCCCCN1CCCC1)NCCc1ccc(Cl)cc1 [Example 24, N-(2-(4-Chlorophenyl)ethyl)-N′-(4-pyrrolidin-1-yl-butyl)-guanidine bis-hydrochloride] | 6.31 nM | 631 nM |  |  |  |
| N=C(NCCCCCN1CCCC1)NCCc1ccc(Cl)cc1 [Example 25, N-(2-(4-Chlorophenyl)ethyl)-N′-(5-pyrrolidin-1-yl-pentyl)-guanidine bis-hydrochloride] | 7.94 nM | 79.4 nM |  |  |  |
| N=C(NCCCN1CCCC1)NCCc1ccc(Br)cc1 [Example 26, N-(2-(4-Bromophenyl)ethyl)-N′-(3-pyrrolidin-1-yl-propyl)-guanidine bis-hydrochloride] | 39.8 nM | 158 nM |  |  |  |
| Cl.Cl.N=C(NCCCCCN1CCCC1)NCC12CC3CC(CC(C3)C1)C2 [Example 30, N-Adamantan-1-yl-methyl-N′-(5-pyrrolidin-1-yl-pentyl)-guanidine bis-hydrochloride] |  |  | 8.5 | 7.9 |  |
| Cl.Cl.N=C(NCCCCCCN1CCCC1)NCC12CC3CC(CC(C3)C1)C2 [Example 31, N-Adamantan-1-yl-methyl-N′-(6-pyrrolidin-1-yl-hexyl)-guanidine bis-hydrochloride] |  |  |  | 8.0 | 8.4 |
| Cl.Cl.N=C(NCCCCCCCN1CCCC1)NCC12CC3CC(CC(C3)C1)C2 [Example 32, N-Adamantan-1-yl-methyl-N′-(7-pyrrolidin-1-yl-heptyl)-guanidine bis-hydrochloride] |  |  | 8.5 | 8.0 |  |
| N=C(NCCCN1CCCC1)NCCC12CC3CC(CC(C3)C1)C2 [Example 33, N-(2-Adamantan-1-yl-ethyl)-N′-(3-pyrrolidin-1-yl-propyl)-guanidine bis-hydrochloride] | 79.4 nM | 200 nM |  |  |  |
| N=C(NCCCN1CCCC1)NCCCC12CC3CC(CC(C3)C1)C2 [Example 34, N-(3-Adamantan-1-yl-propyl)-N′-(3-pyrrolidin-1-yl-propyl)-guanidine bis-hydrochloride] | 316 nM | 316 nM |  |  |  |
| N=C(NCCCCN1CCCC1)NCCC12CC3CC(CC(C3)C1)C2 [Example 35, N-(2-Adamantan-1-yl-ethyl)-N′-(4-pyrrolidin-1-yl-butyl)-guanidine bis-hydrochloride] | 7.94 nM | 20 nM |  |  |  |
| N=C(NCCCCN1CCCC1)NCCCC12CC3CC(CC(C3)C1)C2 [Example 36, N-(3-Adamantan-1-yl-propyl)-N′-(4-pyrrolidin-1-yl-butyl)-guanidine bis-hydrochloride] | 50.1 nM | 63.1 nM |  |  |  |
| N=C(NCCCCCN1CCCC1)NCCC12CC3CC(CC(C3)C1)C2 [Example 37, N-(2-Adamantan-1-yl-ethyl)-N′-(5-pyrrolidin-1-yl-pentyl)-guanidine bis-hydrochloride] | 12.6 nM | 25.1 nM |  |  |  |
| N=C(NCCCCCN1CCCC1)NCCCC12CC3CC(CC(C3)C1)C2 [Example 38, N-(3-Adamantan-1-yl-propyl)-N′-(5-pyrrolidin-1-yl-pentyl)-guanidine bis-hydrochloride] | 31.6 nM | 63.1 nM |  |  |  |
| Cl.Cl.N=C(NCCCCN1CCCC1)NCC1CCCCC1 [Example 40, N-Cyclohexyl-methyl-N′-(4-pyrrolidin-1-yl-butyl)-guanidine bis-hydrochloride] |  |  | 8.4 | 7.4 |  |
| Cl.Cl.N=C(NCCCCCN1CCCC1)NCC1CCCCC1 [Example 41, N-Cyclohexyl-methyl-N′-(5-pyrrolidin-1-yl-pentyl)-guanidine bis-hydrochloride] |  |  | 8.9 | 7.5 |  |
| N=C(NCCCN1CCCC1)NCCC1CCCCC1 [Example 42, N-(2-Cyclohexyl-ethyl)-N′-(3-pyrrolidin-1-yl-propyl)-guanidine bis-hydrochloride] | 25.1 nM | 398 nM |  |  |  |
| N=C(NCCCC1CCCCC1)NCCCN1CCCC1 [Example 43, N-(3-Cyclohexyl-propyl)-N′-(3-pyrrolidin-1-yl-propyl)-guanidine bis-hydrochloride] | 100 nM | 200 nM |  |  |  |
| C[C@@H](NC(=N)NCCCCN1CCCC1)C1CCCCC1 [Example 44, N-(1(R)-Cyclohexyl-ethyl)-N′-(4-pyrrolidin-1-yl-butyl)-guanidine bis-hydrochloride] | 1.58 nM | 25.1 nM |  |  |  |
| C[C@H](NC(=N)NCCCCN1CCCC1)C1CCCCC1 [Example 45, N-(1(S)-Cyclohexyl-ethyl)-N′(4-pyrrolidin-1-yl-butyl)-guanidine bis-hydrochloride] | 3.98 nM | 31.6 nM |  |  |  |
| Cl.Cl.N=C(NCCCCCN1CCCC1)NCC1CCCCCC1 [Example 46, N-Cycloheptyl-methyl-N′(5-pyrrolidin-1-yl-pentyl)-guanidine bis-hydrochloride] |  |  | 8.5 | 7.7 |  |
